# Measured values from ChEMBL document CHEMBL6078635, “Advances in diarylpyrimidines and related analogues as HIV-1 nonnucleoside reverse transcriptase inhibitors (2019-2023)” (Eur J Med Chem, 2024).
# Legend:
# [1] = test system: Human immunodeficiency virus 1; experiment: Antiviral activity against wild type HIV-1; type: functional, organism-based
# [2] = test system: Human immunodeficiency virus 1; experiment: Antiviral activity against HIV1 harboring K103N/Y181C double mutant; type: functional, organism-based
# MT4 [3] = experiment: Cytotoxicity against human MT4 cells assessed as reduction in cell viability after 5 days by MTT assay; type: functional; settings: MT4, 120 h, time 5 day
# [4] = Selectivity index, ratio of CC50 for cytotoxicity against human MT4 cells to EC50 for antiviral activity against wild type HIV-1 IIIB infected in human MT4 cells; type: toxicity, cell-based; settings: read-out: Selectivity Index
# [5] = test system: Human immunodeficiency virus 1; experiment: Antiviral activity against HIV-1 […] mutant; type: functional, organism-based
# [6] = test system: Human immunodeficiency virus 1; experiment: Antiviral activity against HIV1 harboring K103N mutant infected in MT4 cells; type: functional, organism-based; settings: Human immunodeficiency virus 1, MT4
# [7] = test system: Human immunodeficiency virus 1; experiment: Antiviral activity against HIV1 harboring F227L/V106A double mutant infected in MT4 cells; type: functional, organism-based; settings: Human immunodeficiency virus 1, MT4
# [8] = test system: Human immunodeficiency virus 1; experiment: Antiviral activity against HIV1 harboring Y181C mutant infected in MT4 cells; type: functional, organism-based; settings: Human immunodeficiency virus 1, MT4
# [9] = test system: Human immunodeficiency virus 1; experiment: Antiviral activity against HIV1 harboring Y188L mutant infected in MT4 cells; type: functional, organism-based; settings: Human immunodeficiency virus 1, MT4
# [10] = test system: Human immunodeficiency virus 1; experiment: Antiviral activity against HIV1 harboring E138K mutant infected in MT4 cells; type: functional, organism-based; settings: Human immunodeficiency virus 1, MT4
# [11] = test system: Human immunodeficiency virus 1; experiment: Antiviral activity against wild type HIV-1 3B; type: functional, organism-based; settings: Human immunodeficiency virus 1, 3B
# [12] = Oral bioavailability in human; type: ADME, organism-based; settings: in vivo
# [13] = target: Human immunodeficiency virus type 1 reverse transcriptase (Human immunodeficiency virus 1, UniProt Q72547); experiment: Inhibition of wild type HIV-1 Reverse transcriptase
# [14] = test system: Human immunodeficiency virus 1; experiment: Antiviral activity against HIV-1 3B harboring E138K mutant infected in MT4 cells assessed as reduction in virus induced cytopathic effect incubated for 5 days by MTT assay; type: functional, organism-based; settings: Human immunodeficiency virus 1, 3B, MT4, 120 h
# [15] = test system: Human immunodeficiency virus 1; experiment: Antiviral activity against HIV1 harboring K103N mutant infected in MT4 cells assessed as inhibition of viral growth; type: functional, organism-based; settings: Human immunodeficiency virus 1, MT4
# [16] = test system: Human immunodeficiency virus 1; experiment: Antiviral activity against wild type HIV-1 3B infected in human MT4 cells assessed as inhibition of virus-induced cytopathic effect measured for 5 days by MTT assay; type: functional, organism-based; settings: Human immunodeficiency virus 1, 3B, MT4, 120 h
# [17] = test system: Human immunodeficiency virus 1; experiment: Antiviral activity against HIV-1 3B harboring L100I mutant infected in MT4 cells assessed as reduction in virus induced cytopathic effect incubated for 5 days by MTT method; type: functional, organism-based; settings: Human immunodeficiency virus 1, 3B, MT4, 120 h
# [18] = test system: Human immunodeficiency virus 1; experiment: Antiviral activity against NNRTI-resistant HIV-1 harboring Y181C mutant assessed as inhibition of viral growth; type: functional, organism-based
# [19] = test system: Human immunodeficiency virus 1; experiment: Antiviral activity against HIV-1 Y188L mutant infected in human MT4 cells assessed as reduction in virus induced cytopathic effect incubated for 5 days by MTT method; type: functional, organism-based; settings: Human immunodeficiency virus 1, MT4, 120 h
# [20] = test system: Human immunodeficiency virus 1; experiment: Antiviral activity against HIV-1 3B harboring F227L/V106A double mutant infected in MT4 cells assessed as reduction in virus induced cytopathic effect incubated for 5 days by MTT method; type: functional, organism-based; settings: Human immunodeficiency virus 1, 3B, MT4, 120 h
# [21] = Aqueous solubility of compound at pH 7.4 incubated for 24 hrs by LC-MS/MS analysis; type: physicochemical; settings: buffer
# [22] = Lipophilicity, logP of compound; type: physicochemical; settings: octanol/water
# [23] = Metabolic stability in human liver microsomes assessed as half life measured upto 120 mins by LC-MS/MS analysis; type: ADME, Microsome
# [24] = Metabolic stability in human liver microsomes assessed as intrinsic clearance measured for 60 mins by LC-MS/MS analysis; type: ADME, Microsome; settings: read-out: CLH
# MOLT-4 = experiment: Cytotoxicity against human MOLT-4 cells assessed as reduction in cell viability by MTT assay; type: functional
# [25] = test system: Human immunodeficiency virus 1; experiment: Antiviral activity against HIV-1 3B infected in human MT4 cells assessed as inhibition of viral replication incubated for 5 days by MTT assay; type: functional, organism-based; settings: Human immunodeficiency virus 1, 3B, MT4, 120 h
# MT4 [26] = experiment: Cytotoxicity against human MT4 cells assessed as reduction in cell viability; type: functional
# MT2 = experiment: Cytotoxicity against human MT2 cells; type: functional
compound,measurement,setting,value
N#Cc1ccc(Nc2nccc(Oc3ccc4cc(C#N)ccc4c3Br)n2)cc1,EC50,[1],2 nM
same,EC50,[2],240 nM
same,CC50,MT4 [3],283000 nM
same,selectivity ratio,[4],181000
COc1cc2cc(C#N)ccc2c(OC)c1Oc1ccnc(Nc2ccc(C#N)cc2)n1,EC50,[1],5 nM
same,EC50,[2],160 nM
same,CC50,MT4 [3],> 118000 nM
same,selectivity ratio,[4],> 25000
Cc1cc(C#N)cc(C)c1Oc1ccnc(S(=O)(=O)CC(=O)Nc2ccc(C#N)cc2)n1,EC50,[1],2 nM
same,CC50,MT4 [3],> 6010 nM
same,selectivity ratio,[4],> 3540
Cc1cc(-c2ccc(C#N)cc2)cc(C)c1Nc1ccnc(Nc2ccc(C#N)cc2)n1,CC50,MT4 [3],2080 nM
same,selectivity ratio,[4],2060
N#Cc1ccc(Nc2nccc(Oc3ccc4ccccc4c3Br)n2)cc1,EC50,[1],2.4 nM
same,EC50,[2],6750 nM
same,CC50,MT4 [3],154000 nM
same,selectivity ratio,[4],65600
Cc1cc(C(C#N)c2ccccc2F)nc(Nc2ccc(C#N)cc2)n1 (stereo not given),EC50,[1],1.8 nM
Cc1cc(C#Cc2cccnc2)cc(C)c1Oc1ccnc(Nc2ccc(C#N)cc2)n1,EC50,[1],3 nM
same,EC50,[5],76 nM
same,EC50,[6],10 nM
same,EC50,[7],209 nM
same,EC50,[2],935 nM
same,CC50,MT4 [3],3480 nM
N#Cc1ccc(Nc2nccc(/C(=N/O)c3ccc(-c4ccc(F)cc4)cc3F)n2)cc1,EC50,[1],12 nM
same,EC50,[5],400 nM
same,EC50,[8],182 nM
same,EC50,[6],500 nM
same,EC50,[9],3430 nM
same,EC50,[10],170 nM
same,EC50,[7],4600 nM
same,EC50,[2],22700 nM
same,CC50,MT4 [3],> 292000 nM
Cc1cc(/C=C/C#N)cc([N+](=O)[O-])c1Nc1nc(Nc2ccc(C#N)cc2)nc2ccccc12,EC50,[11],3.4 nM
same,bioavailability,[12],16.5%
Cc1cc(/C=C/C#N)cc([N+](=O)[O-])c1Nc1nc(Nc2ccc(C#N)cc2)nc2ccc(Cl)cc12,EC50,[11],10.6 nM
same,bioavailability,[12],16%
N#Cc1ccc(Nc2ncc(C(N)=O)c(Oc3ccc4cc(C#N)ccc4c3)n2)cc1,EC50,[1],3.7 nM
same,EC50,[10],11 nM
same,CC50,MT4 [3],> 307000 nM
same,selectivity ratio,[4],84700
Cc1cc(-c2ccc(C#N)cc2)cc(C)c1Oc1ccnc(S(=O)(=O)CC(=O)Nc2ccc(C#N)cc2)n1,EC50,[1],6 nM
same,EC50,[5],8 nM
same,EC50,[8],26 nM
same,EC50,[6],6 nM
same,EC50,[9],122 nM
same,EC50,[10],26 nM
same,EC50,[7],642 nM
same,EC50,[2],226 nM
same,CC50,MT4 [3],24400 nM
same,IC50,[13],142 nM
same,selectivity ratio,[4],4070
COc1ccc(-c2cc(C)c(Oc3nc(NC4CCN(Cc5ccc(C(N)=O)cc5)CC4)nc4ccsc34)c(C)c2)cc1,EC50,[2],1120 nM
same,EC50,[14],149 nM
same,EC50,[15],58.4 nM
same,EC50,[16],52.6 nM
same,EC50,[17],268 nM
same,EC50,[18],158 nM
same,EC50,[19],110 nM
same,EC50,[20],297 nM
Cc1cc(-c2ccc(N(C)C)cc2)cc(C)c1Oc1nc(NC2CCN(Cc3ccc(C(N)=O)cc3)CC2)nc2ccsc12,EC50,[2],> 23500 nM
same,EC50,[14],245 nM
same,EC50,[15],173 nM
same,EC50,[16],176 nM
same,EC50,[17],1120 nM
same,EC50,[18],585 nM
same,EC50,[19],556 nM
same,EC50,[20],1250 nM
N#Cc1ccc(Nc2nc(N)cc(Oc3c(F)cc(-c4ccc(C#N)cc4)cc3F)n2)cc1,EC50,[1],1.8 nM
same,EC50,[5],16 nM
same,EC50,[8],32 nM
same,EC50,[6],2 nM
same,EC50,[9],1050 nM
same,EC50,[10],8 nM
same,EC50,[2],10 nM
same,solubility at 24 h,[21],< 1 µg/mL
N#Cc1ccc(Nc2nccc(Oc3ccc4ccccc4c3)n2)cc1,logP,[22],5.36
Cc1cc(/C=C/C#N)cc(C)c1Oc1nc(NC2CCN(Cc3ccc(B(O)O)cc3)CC2)nc2c1COC2,EC50,[1],7.23 nM
same,EC50,[5],9.85 nM
same,EC50,[8],19.7 nM
same,EC50,[6],7.19 nM
same,EC50,[9],39.9 nM
same,EC50,[10],17.3 nM
same,EC50,[7],43.2 nM
same,EC50,[2],77.9 nM
same,CC50,MT4 [3],25600 nM
Cc1cc(-c2ccc(F)cc2)cc(C)c1Oc1nc(NC2CCN(Cc3ccc(C(N)=O)cc3)CC2)nc2ccsc12,EC50,[2],575 nM
same,EC50,[14],34.8 nM
same,EC50,[15],11.7 nM
same,EC50,[16],12.8 nM
same,EC50,[17],61.1 nM
same,EC50,[18],36.1 nM
same,EC50,[19],51.4 nM
same,EC50,[20],56.6 nM
N#Cc1ccc(Nc2ncc(CO)c(Nc3c(F)cc(-c4ccc(C#N)cc4)cc3F)n2)cc1,EC50,[1],0.9 nM
same,EC50,[5],1.9 nM
same,EC50,[8],8.2 nM
same,EC50,[9],162 nM
same,EC50,[10],3.5 nM
same,half-life,[23],45.9 h
same,CLint scaled,[24],0.763 mL/min/kg
same,CC50,MOLT-4,225000 nM
Cc1cc(-c2ccsc2)cc(C)c1Oc1nc(NC2CCN(Cc3ccc(C(N)=O)cc3)CC2)nc2ccsc12,EC50,[2],4520 nM
same,EC50,[14],739 nM
same,EC50,[15],171 nM
same,EC50,[16],240 nM
same,EC50,[17],925 nM
same,EC50,[18],741 nM
same,EC50,[19],628 nM
same,EC50,[20],854 nM
Cc1cc(-c2ccoc2)cc(C)c1Oc1nc(NC2CCN(Cc3ccc(C(N)=O)cc3)CC2)nc2ccsc12,EC50,[2],813 nM
same,EC50,[14],177 nM
same,EC50,[15],74.8 nM
same,EC50,[16],57.5 nM
same,EC50,[17],262 nM
same,EC50,[18],180 nM
same,EC50,[19],222 nM
same,EC50,[20],525 nM
Cc1cc(-c2ccc(C#N)cc2)cc(C)c1Oc1nc(NC2CCN(Cc3ccc(C(N)=O)cc3)CC2)nc2ccsc12,EC50,[2],125 nM
same,EC50,[14],23.2 nM
same,EC50,[15],6.02 nM
same,EC50,[16],9.93 nM
same,EC50,[17],10.5 nM
same,EC50,[18],18.9 nM
same,EC50,[19],23.9 nM
same,EC50,[20],97.2 nM
N#Cc1ccc(Nc2nccc(C(C#N)c3ccc(-c4ccc(C#N)cc4)c(F)c3)n2)cc1 (stereo not given),EC50,[5],1210 nM
same,EC50,[8],870 nM
same,EC50,[6],900 nM
same,EC50,[9],9810 nM
same,EC50,[10],170 nM
same,EC50,[7],> 25600 nM
same,EC50,[2],> 36500 nM
same,EC50,[25],20 nM
same,CC50,MT4 [26],36400 nM
Cc1cc(C#CC2CCN(Cc3ccncc3)CC2)cc(C)c1Oc1ccnc(Nc2ccc(C#N)cc2)n1,EC50,[1],19 nM
same,EC50,[6],50 nM
same,EC50,[10],190 nM
same,CC50,MT2,192000 nM
same,selectivity ratio,[4],101
COC(=O)n1ncc(-c2cc(C)c(Oc3ccnc(Nc4ccc(C#N)cc4)n3)c(C)c2)n1,EC50,[1],13 nM
same,EC50,[6],22 nM
same,EC50,[10],160 nM
same,CC50,MT2,> 242000 nM
N#Cc1ccc(Nc2nccc(Oc3ccc4cccnc4c3Br)n2)cc1,IC50,[13],11 nM
same,CC50,MT2,> 299000 nM
Cc1cc(-c2ccc(C#N)cc2)cc(C)c1Oc1nc(NC2CCN(Cc3ccc(S(N)(=O)=O)cc3)CC2)nc2ccsc12,EC50,[2],103 nM
same,EC50,[14],44.4 nM
same,EC50,[15],13.2 nM
same,EC50,[16],17 nM
same,EC50,[17],27.4 nM
same,EC50,[18],30.8 nM
same,EC50,[19],53.6 nM
same,EC50,[20],59.9 nM
Cc1cc(/C=C/C#N)cc(C)c1Nc1ccnc(Nc2ccc(C#N)cc2)n1 [RILPIVIRINE],CC50,MT4 [3],> 3980 nM
